Assay results published in article PMC11124341, “4-Hydroxybenzoic Acid-Based Hydrazide–Hydrazones as Potent Growth Inhibition Agents of Laccase-Producing Phytopathogenic Fungi That Are Useful in the Protection of Oilseed Crops” (Molecules, 2024).

How the values were obtained:
Candida = test system: Candida; set-up: method as in PMID 23142671; conditions: cited from earlier work
NIH3T3 cell line = test system: NIH3T3 cell line; set-up: method as in PMID 23142671; conditions: read-out: IC50 against NIH3T3 cell line; cited from earlier work
[1] = test system: Botrytis cinerea strain FBc05; assay: In vitro antifungal activity, mycelial growth inhibition on PDA medium; format: cell-based; conditions: screening at basal 50 µg/mL, PDA medium, mean ± SD of three determinations
Method: (§1) The cultures of Botrytis cinerea strain FBc05 and Sclerotinia sclerotiorum strain FSc10 were obtained from the collection of the Division of Plant Pathology and Mycology at the Department of Plant Protection of Wroclaw University of Environmental and Life Sciences (Poland). Cerrena unicolor (Bull.ex.Fr.) Murr, strain no. 139, originated from the culture collection of the Department of Biochemistry, University of Lublin (Poland). The stock cultures were maintained on potato dextrose agar at +4 °C and periodically transferred to a fresh medium.
(§2) Prior to the fungicidal activity assay of hydrazide–hydrazones 1–35, we considered ethanol and DMSO as potential dissolution media for tested compounds. […] Furthermore, a very important aspect of biological testing is the careful selection of organic solvents. These are typically used, e.g., methanol, ethanol, acetone, and DMSO, and may be highly toxic for microorganisms in even very low concentrations, such as 1% (v/v). Ethanol and DMSO with a final concentration between 0.1 and 1.0% (v/v) in a PDA medium were used and applied to evaluate the inhibition growth of B. cinerea, S. sclerotiorum, and C. unicolor (see Supplementary Materials). The following procedure was applied to the microorganism testing. The assays of fungi inhibition growth were performed at a basal concentration of 50 µg/mL for all compounds, and detailed experiments were extended for testing between 0 and 50 µg/mL (0, 6.25, 12.5, 25.0, and 50.0 µg/mL) for selected compounds. The tests were carried out on Petri dishes (diameter 60 mm) with PDA medium containing appropriate compound, co-solvent control, and hydrazide–hydrazone dissolved in co-solvent assay. A piece of mycelium with a 5 mm edge taken from the outer edge of the growing fungi on the PDA plate with co-solvent was transferred to a central part of the PDA plate with the examined compound. The plates thus inoculated were incubated at 22 °C in the dark for a time when the control plate containing only the co-solvent was covered entirely with the tested microorganism. For B. cinerea and S. sclerotiorum, the test took 3 days, and for C. unicolor, it took 7 days. Each assay was performed at least in triplicate. […] Model parameters c and e were estimated using the nonlinear least-squares method. Parameters d and b (with two exceptions) were fixed and assumed to be equal. Based on estimated parameters, the values of IC50 were determined. […] The IC50 values were calculated only in cases when the model predicted a decrease in growth rate by more than 50%.
(§3) In vitro antifungal activity
(§4) Prior to the fungicidal activity assay of hydrazide-hydrazones 1–35, we considered ethanol (EtOH) and DMSO as potential dissolution media for tested compounds.
(§5) EtOH and DMSO with a final concentration between 0.1–1.0% (v/v) in a PDA medium were applied to evaluate the inhibition growth of B. cinerea, S. sclerotiorum, and C. unicolor (see Table S3). The following procedure was applied to the microorganism testing with the hydrazide-hydrazones. The assays of fungi inhibition growth were performed at a basal concentration of 50 µg/mL for all compounds, and detailed experiments were extended for testing selected molecules 18, 19, 27, […]
(§6) Table S2. In vitro antifungal activity for DMSO and ethanol co-solvents.

[2] = test system: Cerrena unicolor strain no. 139; assay: as above; format: cell-based; conditions: Cerrena unicolor, NO.139; screening at basal 50 µg/mL, PDA medium, mean ± SD of three determinations; read-out: fungal growth inhibition, C. unicolor
Method: as §1, §2, §3, §4, §5, §6

[3] = test system: Sclerotinia sclerotiorum strain FSc10; assay: as above; format: cell-based; conditions: screening at basal 50 µg/mL, PDA medium, mean ± SD of three determinations
Method: as §1, §2, §3, §4, §5, §6

[4] = target: laccase from Trametes versicolor; assay: Laccase inhibition kinetic study; format: biochemical; conditions: determined in this study for 32 (table cites [75]), SD = 5.75 (%)
Method: The inhibition constant for 32 was determined according to procedures and calculations reported previously using commercially available laccase from Trametes versicolor (Sigma-Aldrich).

| SMILES | MIC, anticandidal activity (Candida) [µg/mL] | IC50 (NIH3T3 cell line) [µM] | fungal growth inhibition, B. cinerea [1] | inhibition of growth at 50 µg/mL [2] [%] | fungal growth inhibition, S. sclerotiorum [3] | Ki [4] [µM] | melting point |
| --- | --- | --- | --- | --- | --- | --- | --- |
| Cn1nnnc1SCC(=O)N/N=C/c1ccc(O)cc1 [II] | 500 to 1000 | 632 | – | – | – | – | – |
| O=C(N/N=C/c1c(O)cc(O)c(/C=N/NC(=O)c2ccc(O)cc2)c1O)c1ccc(O)cc1 [compound 32, N′,N″-[(2,4,6-trihydroxy-1,3-phenylene)di-(E)-methanylylidene]bis(4-hydroxybenzohydrazide)] | – | – | n.o. | 14.3 ± 2.7 | n.o. | 194 | 223 to 226 °C (dec.) |
